The values that follow come from paper PMC7770833, “Design, Synthesis, and Biological Evaluation of a Series of Oxazolone Carboxamides as a Novel Class of Acid Ceramidase Inhibitors” (Journal of Medicinal Chemistry, 2020).

In data set [1] the test system is AC. The following applies: HL-60 cell lysates; cited from earlier work.
Data set [2] relates to AC. Conditions: HaCaT cell lysates; cited from earlier work.
In data set [3] the target is human ceramidase (hCDase). Conditions: in SKOV3 cells; cited from earlier work.
A short description of data set [4]: Aqueous kinetic solubility assay. The following applies: PBS pH 7.4. The data set is classed as physicochemical. As to the method:
The aqueous kinetic solubility was determined from a 10 mM CH3CN stock solution of the test compound in PBS at pH 7.4. The study was performed by the incubation of an aliquot of 10 mM CH3CN stock solution in PBS (pH 7.4) at a target concentration of 250 μM. The incubation was carried out under shaking at 25 °C for 1 h, followed by centrifugation at 21 100 × g for 30 min. The supernatant was analyzed by UPLC/MS for the quantification of the dissolved compound (in μM) by UV at a specific wavelength (215 nm). […] The UPLC/MS analyses were performed on a Waters Acquity UPLC/MS system consisting of SQDMS equipped with an ESI interface and a PDA detector. The PDA range was 210–400 nm. ESI in positive mode was used in the mass scan range 100–650 Da. The analyses were run on an Acquity UPLC BEH C18 column (50 × 2.1 mm ID, particle size 1.7 μm) with a VanGuard BEH C18 pre-column (5 × 2.1 mm ID, particle size 1.7 μm), using 10 mM NH4OAc in H2O at pH 5 adjusted with AcOH (A) and 10 mM NH4OAc in CH3CN/H2O (95:5) at pH 5 (B) as the mobile phase. The values are the mean of at least two independent experiments performed in two technical replicates.

pIC50: −log10 of the molar value. Converted amounts (≈) assume the structure as drawn. Read-outs that look alike come from different tables or passages of the source. Bounds are passed on as bounds.

A word on the pIC50: it is the negative decadic logarithm of the IC50, by convention in mol/L. Take `CCCCCCCCCCCCCC(=O)N[C@H](C)[C@@H](O)c1ccccc1` [D-e-MAPP, D-erithro-2-(N-myristoylamino)-1-phenyl-1-propanol]: the pIC50 in the data set with AC [1] was less than 3.30.
As to `CCCCCCCCCCCCCC(=O)N[C@H](CO)[C@H](O)c1ccc([N+](=O)[O-])cc1` [Compound B13], the pIC50 in the data set on AC [2] is roughly 5.00.
Turning to `COc1ccc(/C=C/C(=O)c2c(-c3ccccc3)c3cc(C)ccc3[nH]c2=O)cc1` [Ceranib-1], the pIC50 in data set [3] is 4.26.
By solubility is commonly meant the concentration that dissolves in the medium under given conditions. The low end stands for a poorly soluble substance, the high end for a readily soluble substance. With `CN1CCC(c2cn(C(=O)NCCCCc3ccccc3)c(=O)o2)CC1` [Compound 12y, 5-(1-Methyl-4-piperidyl)-2-oxo-N-(4-phenylbutyl)oxazole-3-carboxamide], the solubility at 1 h in data set [4] came to 248 µM (≈ 88.6 µg/mL).
